Legend:
[1] = test system: HCT-15; test: Cytotoxicity against human HCT15 cells at 10 uM after 48 hrs by SRB assay; format: functional; conditions: HCT-15, 48 h, read-out: GI
[2] = test system: SF-295; test: Cytotoxicity against human SF295 cells at 10 uM after 48 hrs by SRB assay; format: functional; conditions: SF-295, 48 h, read-out: GI
[3] = test system: A549; test: Cytotoxicity against human A549 cells at 10 uM after 48 hrs by SRB assay; format: functional; conditions: A549, 48 h, read-out: GI
[4] = test system: MCF7; test: Cytotoxicity against human MCF7 cells at 10 uM after 48 hrs by SRB assay; format: functional; conditions: MCF7, 48 h, read-out: GI
[5] = test system: HEp-2; test: Cytotoxicity against human Hep2 cells at 10 uM after 48 hrs by SRB assay; format: functional; conditions: HEp-2, 48 h, read-out: GI
[6] = test system: PC-3; test: Cytotoxicity against human PC3 cells at 10 uM after 48 hrs by SRB assay; format: functional; conditions: PC-3, 48 h, read-out: GI
[7] = test system: DU-145; test: Cytotoxicity against human DU145 cells at 10 uM after 48 hrs by SRB assay; format: functional; conditions: DU-145, 48 h, read-out: GI
[8] = test system: HL-60; test: Cytotoxicity against human HL60 cells at 10 uM after 48 hrs by SRB assay; format: functional; conditions: HL-60, 48 h, read-out: GI
[9] = test system: THP-1; test: Cytotoxicity against human THP1 cells at 10 uM after 48 hrs by SRB assay; format: functional; conditions: THP-1, 48 h, read-out: GI
[10] = test system: HCT-15; test: Cytotoxicity against human HCT15 cells at 30 uM after 48 hrs by SRB assay; format: functional; conditions: HCT-15, 48 h, read-out: GI
[11] = test system: SF-295; test: Cytotoxicity against human SF295 cells at 30 uM after 48 hrs by SRB assay; format: functional; conditions: SF-295, 48 h, read-out: GI
[12] = test system: A549; test: Cytotoxicity against human A549 cells at 30 uM after 48 hrs by SRB assay; format: functional; conditions: A549, 48 h, read-out: GI
[13] = test system: MCF7; test: Cytotoxicity against human MCF7 cells at 30 uM after 48 hrs by SRB assay; format: functional; conditions: MCF7, 48 h, read-out: GI
[14] = test system: HEp-2; test: Cytotoxicity against human Hep2 cells at 30 uM after 48 hrs by SRB assay; format: functional; conditions: HEp-2, 48 h, read-out: GI
[15] = test system: PC-3; test: Cytotoxicity against human PC3 cells at 30 uM after 48 hrs by SRB assay; format: functional; conditions: PC-3, 48 h, read-out: GI
[16] = test system: DU-145; test: Cytotoxicity against human DU145 cells at 30 uM after 48 hrs by SRB assay; format: functional; conditions: DU-145, 48 h, read-out: GI
[17] = test system: HL-60; test: Cytotoxicity against human HL60 cells at 30 uM after 48 hrs by SRB assay; format: functional; conditions: HL-60, 48 h, read-out: GI
[18] = test system: THP-1; test: Cytotoxicity against human THP1 cells at 30 uM after 48 hrs by SRB assay; format: functional; conditions: THP-1, 48 h, read-out: GI
[19] = test system: HCT-15; test: Cytotoxicity against human HCT15 cells at 50 uM after 48 hrs by SRB assay; format: functional; conditions: HCT-15, 48 h, read-out: GI
[20] = test system: SF-295; test: Cytotoxicity against human SF295 cells at 50 uM after 48 hrs by SRB assay; format: functional; conditions: SF-295, 48 h, read-out: GI
[21] = test system: A549; test: Cytotoxicity against human A549 cells at 50 uM after 48 hrs by SRB assay; format: functional; conditions: A549, 48 h, read-out: GI
[22] = test system: MCF7; test: Cytotoxicity against human MCF7 cells at 50 uM after 48 hrs by SRB assay; format: functional; conditions: MCF7, 48 h, read-out: GI
[23] = test system: HEp-2; test: Cytotoxicity against human Hep2 cells at 50 uM after 48 hrs by SRB assay; format: functional; conditions: HEp-2, 48 h, read-out: GI
[24] = test system: PC-3; test: Cytotoxicity against human PC3 cells at 50 uM after 48 hrs by SRB assay; format: functional; conditions: PC-3, 48 h, read-out: GI
[25] = test system: HL-60; test: Cytotoxicity against human HL60 cells at 50 uM after 48 hrs by SRB assay; format: functional; conditions: HL-60, 48 h, read-out: GI
[26] = test system: DU-145; test: Cytotoxicity against human DU145 cells at 50 uM after 48 hrs by SRB assay; format: functional; conditions: DU-145, 48 h, read-out: GI
[27] = test system: THP-1; test: Cytotoxicity against human THP1 cells at 50 uM after 48 hrs by SRB assay; format: functional; conditions: THP-1, 48 h, read-out: GI
[28] = test system: HCT-15; test: Cytotoxicity against human HCT15 cells after 48 hrs by SRB assay; format: functional, cell-based; conditions: HCT-15, 48 h
[29] = test system: A549; test: Cytotoxicity against human A549 cells after 48 hrs by SRB assay; format: functional, cell-based; conditions: A549, 48 h
[30] = test system: SF-295; test: Cytotoxicity against human SF295 cells after 48 hrs by SRB assay; format: functional, cell-based; conditions: SF-295, 48 h
[31] = test system: MCF7; test: Cytotoxicity against human MCF7 cells after 48 hrs by SRB assay; format: functional, cell-based; conditions: MCF7, 48 h
[32] = test system: HEp-2; test: Cytotoxicity against human Hep2 cells after 48 hrs by SRB assay; format: functional, cell-based; conditions: HEp-2, 48 h
[33] = test system: PC-3; test: Cytotoxicity against human PC3 cells after 48 hrs by SRB assay; format: functional, cell-based; conditions: PC-3, 48 h
[34] = test system: DU-145; test: Cytotoxicity against human DU145 cells after 48 hrs by SRB assay; format: functional, cell-based; conditions: DU-145, 48 h
[35] = test system: HL-60; test: Cytotoxicity against human HL60 cells after 48 hrs by SRB assay; format: functional, cell-based; conditions: HL-60, 48 h
[36] = test system: THP-1; test: Cytotoxicity against human THP1 cells after 48 hrs by SRB assay; format: functional, cell-based; conditions: THP-1, 48 h

Row | Compound | inhibition of growth at 10 µM [1] [%] | inhibition of growth at 10 µM [2] [%] | inhibition of growth at 10 µM [3] [%] | inhibition of growth at 10 µM [4] [%] | inhibition of growth at 10 µM [5] [%] | inhibition of growth at 10 µM [6] [%] | inhibition of growth at 10 µM [7] [%] | inhibition of growth at 10 µM [8] [%] | inhibition of growth at 10 µM [9] [%] | inhibition of growth at 30 µM [10] [%] | inhibition of growth at 30 µM [11] [%] | inhibition of growth at 30 µM [12] [%] | inhibition of growth at 30 µM [13] [%] | inhibition of growth at 30 µM [14] [%] | inhibition of growth at 30 µM [15] [%] | inhibition of growth at 30 µM [16] [%] | inhibition of growth at 30 µM [17] [%] | inhibition of growth at 30 µM [18] [%] | inhibition of growth at 50 µM [19] [%] | inhibition of growth at 50 µM [20] [%] | further results
1 | C=C(C)[C@@H]1CC[C@]2(C(=O)O)CC[C@]3(C)[C@H](CC[C@@H]4[C@@]5(C)CC[C@H](OCc6cn(-c7cccc(OC)c7)nn6)C(C)(C)[C@@H]5CC[C@]43C)[C@@H]12 | 23 | 15 | 34 | 46 | 30 | 4 | 17 | 20 | 17 | 53 | 48 | 38 | 59 | 56 | 10 | 18 | 45 | 41 | 84 | 55 | inhibition of growth at 50 µM [21]: 45%; inhibition of growth at 50 µM [22]: 75%; inhibition of growth at 50 µM [23]: 57%; inhibition of growth at 50 µM [24]: 28%; inhibition of growth at 50 µM [25]: 60%; inhibition of growth at 50 µM [26]: 30%; inhibition of growth at 50 µM [27]: 54%; IC50 [28]: 26 µM; IC50 [29]: > 50 µM; IC50 [30]: 32 µM; IC50 [31]: 12 µM; IC50 [32]: 29 µM; IC50 [33]: > 50 µM; IC50 [34]: > 50 µM; IC50 [35]: 37 µM; IC50 [36]: 47 µM
2 | C=C(C)[C@@H]1CC[C@]2(C(=O)O)CC[C@]3(C)[C@H](CC[C@@H]4[C@@]5(C)CC[C@H](OCc6cn(-c7ccc(CC#N)cc7)nn6)C(C)(C)[C@@H]5CC[C@]43C)[C@@H]12 | 17 | 44 | 32 | 42 | 45 | 42 | 30 | 46 | 43 | 27 | 81 | 57 | 98 | 69 | 48 | 61 | 96 | 95 | 56 | 83 | inhibition of growth at 50 µM [21]: 60%; inhibition of growth at 50 µM [22]: 99%; inhibition of growth at 50 µM [23]: 71%; inhibition of growth at 50 µM [24]: 64%; inhibition of growth at 50 µM [25]: 98%; inhibition of growth at 50 µM [26]: 68%; inhibition of growth at 50 µM [27]: 96%; IC50 [28]: 46 µM; IC50 [29]: 25 µM; IC50 [30]: 13 µM; IC50 [31]: 12 µM; IC50 [32]: 13 µM; IC50 [33]: 32 µM; IC50 [34]: 23 µM; IC50 [35]: 11 µM; IC50 [36]: 12 µM
3 | C=C(C)[C@@H]1CC[C@]2(C(=O)O)CC[C@]3(C)[C@H](CC[C@@H]4[C@@]5(C)CC[C@H](OCc6cn(-c7cc(OC)c(OC)c(OC)c7)nn6)C(C)(C)[C@@H]5CC[C@]43C)[C@@H]12 | 47 | 28 | 25 | 50 | 8 | 8 | 3 | 41 | 35 | 35 | 51 | 26 | 71 | 38 | 30 | 10 | 51 | 44 | 43 | 51 | inhibition of growth at 50 µM [21]: 41%; inhibition of growth at 50 µM [22]: 74%; inhibition of growth at 50 µM [23]: 48%; inhibition of growth at 50 µM [24]: 46%; inhibition of growth at 50 µM [25]: 65%; inhibition of growth at 50 µM [26]: 11%; inhibition of growth at 50 µM [27]: 58%; IC50 [28]: > 50 µM; IC50 [29]: > 50 µM; IC50 [30]: 27 µM; IC50 [31]: 10 µM; IC50 [32]: > 50 µM; IC50 [33]: > 50 µM; IC50 [34]: > 50 µM; IC50 [35]: 37 µM; IC50 [36]: 39 µM
4 | C=C(C)[C@@H]1CC[C@]2(C(=O)O)CC[C@]3(C)[C@H](CC[C@@H]4[C@@]5(C)CC[C@H](OCc6cn(C7O[C@H](COC(C)=O)[C@@H](OC(C)=O)[C@H](OC(C)=O)[C@H]7OC(C)=O)nn6)C(C)(C)[C@@H]5CC[C@]43C)[C@@H]12 (stereo not given in full) | 39 | 8 | 5 | 8 | 24 | 8 | 7 | 52 | 44 | 54 | 5 | 20 | 15 | 39 | 7 | 4 | 63 | 58 | 62 | 5 | inhibition of growth at 50 µM [21]: 43%; inhibition of growth at 50 µM [22]: 32%; inhibition of growth at 50 µM [23]: 44%; inhibition of growth at 50 µM [24]: 11%; inhibition of growth at 50 µM [25]: 80%; inhibition of growth at 50 µM [26]: 8%; inhibition of growth at 50 µM [27]: 76%; IC50 [28]: 27 µM; IC50 [29]: > 50 µM; IC50 [30]: > 50 µM; IC50 [31]: > 50 µM; IC50 [32]: > 50 µM; IC50 [33]: > 50 µM; IC50 [34]: > 50 µM; IC50 [35]: 8 µM; IC50 [36]: 20 µM
5 | C=C(C)[C@@H]1CC[C@]2(C(=O)O)CC[C@]3(C)[C@H](CC[C@@H]4[C@@]5(C)CC[C@H](OCc6cn(-c7ccc(C#N)cc7)nn6)C(C)(C)[C@@H]5CC[C@]43C)[C@@H]12 | 14 | 5 | 22 | 5 | 1 | 3 | 1 | 15 | 21 | 80 | 18 | 28 | 32 | 49 | 5 | 15 | 40 | 44 | 39 | 54 | inhibition of growth at 50 µM [21]: 36%; inhibition of growth at 50 µM [22]: 51%; inhibition of growth at 50 µM [23]: 60%; inhibition of growth at 50 µM [24]: 42%; inhibition of growth at 50 µM [25]: 48%; inhibition of growth at 50 µM [26]: 20%; inhibition of growth at 50 µM [27]: 47%; IC50 [28]: > 50 µM; IC50 [29]: > 50 µM; IC50 [30]: 48 µM; IC50 [31]: 49 µM; IC50 [32]: 32 µM; IC50 [33]: > 50 µM; IC50 [34]: > 50 µM; IC50 [35]: 32 µM; IC50 [36]: > 50 µM
